Read-outs that look alike come from different tables or passages of the source.

Assay [1] concerns the target T1, GSNOR enzyme (Homo sapiens, UniProt P11766). Kind of assay: GSNOR inhibition assay (rate of NADH consumption, 340 nm absorbance). The format is biochemical. On the procedure:
The following compounds were also prepared based on the methods described herein, using the appropriate starting materials. Table 2a and Table 2b also provides the % GSNOR inhibition at 20 μM of compounds described herein. […] The buffer was 100 mM phosphate buffer (pH 7.4.) The rate of NADH consumption for each well was determined by ultraviolet spectroscopy. Plates were read on a Molecular Devices Spectra Max UV/Visible Spectrophotometer/plate reader and the change in 340 nm absorbance at 25° C. was recorded for each well at 10 sec intervals over the duration of the recording period (2˜5 minutes). The rate was measured from the linear portion of the curve. Final test compound concentration was 20 μM. The mean % inhibition from 3 test compound wells and 5 control wells was measured as the percentage of the mean no compound+enzyme−the mean no enzyme, no compound control.

Assay [2] has as its system IL-6. Kind of assay: LPS/cytokine assay (mouse inflammation assay), IL-6. It counts as in vivo, CD-1 male mice. On the procedure:
Table 2b also includes additional biological data of compounds described herein. The LPS/cytokine Assay was carried out in CD-1 male mice. The assay measured the level of various cytokines, including IL-6, IL-17, and IL-23, after induction by bacterial liposaccharide (LPS). Compounds were dosed by IP or IV routes of administration at varying times before and after LPS and the cytokine concentrations were measured at varying times, typically 6 hrs, after LPS by standard methods using ELISA kits.
BIOLOGICAL TESTING: Compounds 10 and 17 from Table 1 were tested in a mouse inflammation assay. Briefly, CD-1 mice were dosed with compound, 12 hrs before injecting mice I.P. with the potent cytokine inducer, bacterial lipopolysaccharide (LPS). The mice were euthanized 6 hrs after the LPS was injected and their serum prepared by standard methods. The concentration of IL-6 in the serum of each experimental animal was measured using an IL-6 ELISA kit from Enzo. The compounds tested were active.
This LPS/cytokine assay was carried out in healthy mice and measured the level of cytokine IL-6, IL-17, and 23 induction by LPS. Compounds are dosed (either orally (“p.o.”) or intravenously (“i.v.”) at varying times before and after LPS, and the cytokines are measured at varying times after LPS. The effect of the tested compounds (Table 5) on IL-6 release is shown in FIG. 7. The effect of the tested compounds (Table 6) on IL-17 an IL-23 release is shown in FIG. 11 and FIG. 12, respectively.

The subject of assay [3] is db/db mice. Kind of assay: Insulin and glucose tolerance tests, survival and 8-isoprostane in db/db diabetic mice. The format is in vivo. As to the method: Compound 17 was studied in 6 week intra-gastric insulin and glucose tolerance tests in db/db mice dosed orally with Compound 17 at 10 mg/kg for 6 weeks qd. The male db/db mice were started on study at 6 weeks of age and were given a 60% high fat diet to increase the diabetic phenotype.
Vascular reactivity: Db/db mouse aorta segments were equilibrated in oxygenated PBS (95% O2 and 5% CO2) at 37° C. Following equilibration, 1 μM phenylephrine was added to each ring for submaximal contraction. After stabilization, Compound 17 was added to the rings and the effect on the muscle tone of the aorta segments was monitored with a tensometer as dose-responses from 10^-8 M to 10^-5 M for acetylcholine (“Ach”) and A23187 (5-(methylamino)-2-({(2R,3R,6S,8S,9R,11R)-3,9,11-trimethyl-8-[(1S)-1-methyl-2-oxo-2-(1H-pyrrol-2-yl)ethyl]-1,7-dioxaspiro[5.5]undec-2-yl}methyl)-1,3-benzoxazole-4-carboxylic). 8-Isoprostane was measured in plasma and heart homogenates by standard Elisa methods.

The subject of assay [4] is collagen induced arthritis model in DBAJ1 mice. Put plainly: Collagen induced arthritis model. Particulars: 15 mg/kg daily from day 8. The format is in vivo. On the procedure: Compound 17 was tested in a collagen induced arthritis model in DBAJ1 mice. Compound 17 was started on day 8 when the arthritis was established, as in a therapeutic model, and the DBAJ1 mice were then treated daily with Compound 17 (15 mg/kg). Mice were challenged with bovine collagen II+complete adjuvant at day 0. Clinical scores were determined as follows: 0=normal; 0.5=erythema and edema in only one digit; 1=erythema and mild edema of the footpad, or ankle or two to five digits; 2=erythema and moderate edema of two joints (footpad, ankle, two to five digits); 3=erythema and severe edema of the entire paw; 4=reduced swelling and deformation leading to an incapacitated limb.
Measurement of anti-collagen antibodies in the collagen induced arthritis model of rheumatoid arthritis in DBAJ1 Mice was by an anti-collagen ELISA kit by standard methods.

Assay [5] has as its target T1, GSNOR enzyme. Kind of assay: GSNOR inhibition assay (rate of NADH consumption, 340 nm absorbance). It counts as biochemical. To be noted: Table 2b; read-out: IC50 Micromolar.

T1 sequence (P11766 whole entry): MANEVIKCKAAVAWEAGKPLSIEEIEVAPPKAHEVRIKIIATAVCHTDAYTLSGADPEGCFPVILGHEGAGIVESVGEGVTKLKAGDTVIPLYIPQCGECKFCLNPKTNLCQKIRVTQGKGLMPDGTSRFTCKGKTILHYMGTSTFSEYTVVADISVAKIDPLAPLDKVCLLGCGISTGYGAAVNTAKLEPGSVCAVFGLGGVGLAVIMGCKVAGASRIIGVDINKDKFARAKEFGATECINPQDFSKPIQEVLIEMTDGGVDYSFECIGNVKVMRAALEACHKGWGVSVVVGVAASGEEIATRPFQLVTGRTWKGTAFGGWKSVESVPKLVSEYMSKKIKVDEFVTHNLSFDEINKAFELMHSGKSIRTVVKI

Broadly, the IC50 is the concentration that gives 50% inhibition. Turning to `NC(=O)CCn1c2ccc(-n3ccnc3)cc2c2ccc(CCC(=O)O)cc21` [Compound 17, 3-(imidazol-1(H)-yl)-7-(2-carboxylethyl)-9(H)-(2-aminocarbonylethyl) carbazole], in assay [1] (Table 2a, test compound 20 μM, pH 7.4, 25° C., read-out: % Inhibit. at 20 μM), the inhibition at 20 µM is 92.8%. In assay [1] (Table 2b, test compound 20 uM, read-out: % GSNOR Inhibition at 20 uM), the inhibition at 20 µM stood at 92.8%. Further, the “LPS/IL6 Lowest tested active” value in assay [2] (CD-1 male mice, IP or IV, cytokine typically 6 hrs after LPS) came to 0.03 mg/kg. Moreover, the “IL-6 in serum after LPS (mouse inflammation assay)” value in assay [2] (dosed 12 hrs before LPS I.P., serum 6 hrs after LPS) is “active”. In addition, the “insulin and glucose tolerances” value in assay [3] (10 mg/kg orally qd for 6 weeks, 60% high fat diet) was “statistically significantly reduced insulin and glucose tolerances”. In addition, in assay [3] (db/db mice, vs vehicle), the “amount of F2-IsoPs in cardiac tissue (myocardial 8-isoprostane)” value is listed as “significantly reduces” and the “increase of survival in severely debilitated diabetic mice” value was determined as 66%. The “arthritis (clinical score)” value in assay [4] is “inhibits arthritis”. For the same compound, in assay [4] (ELISA), the “production of anti-collagen antibodies” value is “inhibits production of anti-collagen antibodies”. The IC50 in assay [5] lay within 1000 to 5000 nM.

(Values after patent US11655244B2, “Carbazole compounds and methods of use thereof” (GSNO Therapeutics, Inc, priority 2017, dated 2023).)
